The record followed here is US10081632B2, “Substituted tetrahydropyrido[3′,2′:4,5]pyrrolo[1,2-α]pyrazine-2-carboxamides as RSK inhibitors” (Phoenix Molecular Designs, priority 2016, dated 2018).

For data set [1], the system named is MDA-MB-231 cells. Kind of data set: Soft agar growth inhibition assay. The data set is classed as cell-based. As to conditions: Homo sapiens, MDA-MB-231; growth in soft agar (SA); read-out: MDA-MB-231 IC50 (SA).
A short description of data set [2]: Solubility assessment, 20 mg/ml solution. The data set is classed as physicochemical. In a few lines: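 Compounds from 100 mM DMSO stocks diluted to 20 mg/ml in DMEM with FBS and penicillin/streptomycin, vortexed and checked visually for precipitate. One compound instead diluted to 20 mg/ml in phosphate-buffered saline, solution pH 2.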
Data set [3] deals with CD34+ cells. Description: Colony forming unit hematopoietic stem cell assay. The data set is classed as cell-based, human.

In general, IC50 refers to the midpoint of a concentration-inhibition curve. As for `C[C@@H]1CNC(=O)c2cc3ccc(C(=O)Nc4cnn(Cc5ccc(N)cc5)c4)nc3n21` [Compound 18, (R)—N-(1-(4-aminobenzyl)-1H-pyrazol-4-yl)-9-methyl-6-oxo-6,7,8,9-tetrahydropyrido[3′,2′:4,5]pyrrolo[1,2-a]pyrazine-2-carboxamide], the IC50 in data set [1] turned out to be 0.1 µM; in data set [3] (Homo sapiens, Hematopoietic stem cell, CD34+ cells from peripheral blood, read-out: CD34+ (PB) IC50), 16.3 µM. Also, the “Solubility, 20 mg/ml Solution” value in data set [2] (100 mM in DMSO diluted in DMEM growth media to 20 mg/ml) was “Soluble”. Further, the “pH of 20 mg/ml solution” value in data set [2] (DMSO stock diluted in DMEM, pH test strips) came out at 9. Further, the “Therapeutic Window” value in data set [3] (ratio IC50 against CD34+ cells and MDA-MB-231 cells (SA)) was 163X.
